Measured values: ChEMBL document CHEMBL5042474, “Structure-Guided Discovery of Potent and Selective DYRK1A Inhibitors” (J Med Chem, 2021)

Experiments:
[1] = test system: RS4-11; assay: Antitumor activity against human RS4-11 cells xenografted in BALB/c nu/nu mouse assessed as reduction in DYRK1A autophosphorylation of S520 residue at 12.5 mg/kg, po measured after 6 hrs by western blotting analysis relative to control; format: functional; parameters: scale not given: the % may be the effect or the level left
[2] = target: Casein kinase I isoform gamma-1 (Homo sapiens) (UniProt Q9HCP0); assay: Residual activity of CSNK1G1 (unknown origin) at 10 nM using Ulight-MBP as substrate and ATP as co-substrate incubated for 40 mins and measured after 1 hr by TR-FRET assay relative to control; conditions: time 100.0 min
[3] = target: Homeodomain-interacting protein kinase 1 (Homo sapiens) (UniProt Q86Z02); assay: Residual activity of HIPK1 (unknown origin) at 10 nM using Ulight-MBP as substrate and ATP as co-substrate incubated for 40 mins and measured after 1 hr by TR-FRET assay relative to control; conditions: time 100.0 min
[4] = Toxicity in Balb/c nude mouse xenografted with human A2780 cells assessed as decrease in body weight at 18.75 mg/kg, po bid for 14 days relative to control; format: organism-based; parameters: scale not given: the % may be the effect or the level left; conditions: in vivo, 336 h, time 14 day

Chain of Casein kinase I isoform gamma-1 (Homo sapiens) (Q9HCP0 whole entry, looked up, canonical isoform): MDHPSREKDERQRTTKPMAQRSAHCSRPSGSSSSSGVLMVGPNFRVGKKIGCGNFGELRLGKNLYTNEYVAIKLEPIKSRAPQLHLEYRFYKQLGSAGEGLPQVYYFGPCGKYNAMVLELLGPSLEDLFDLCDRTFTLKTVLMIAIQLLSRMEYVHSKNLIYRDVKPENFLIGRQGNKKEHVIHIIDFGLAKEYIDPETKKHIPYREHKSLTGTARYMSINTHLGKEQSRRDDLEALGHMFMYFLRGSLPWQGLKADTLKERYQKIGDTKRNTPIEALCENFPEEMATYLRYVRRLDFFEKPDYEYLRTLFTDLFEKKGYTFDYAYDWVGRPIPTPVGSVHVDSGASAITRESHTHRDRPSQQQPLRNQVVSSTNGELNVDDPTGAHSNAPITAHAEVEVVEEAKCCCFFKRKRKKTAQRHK
Chain of Homeodomain-interacting protein kinase 1 (Homo sapiens) (Q86Z02 whole entry, looked up): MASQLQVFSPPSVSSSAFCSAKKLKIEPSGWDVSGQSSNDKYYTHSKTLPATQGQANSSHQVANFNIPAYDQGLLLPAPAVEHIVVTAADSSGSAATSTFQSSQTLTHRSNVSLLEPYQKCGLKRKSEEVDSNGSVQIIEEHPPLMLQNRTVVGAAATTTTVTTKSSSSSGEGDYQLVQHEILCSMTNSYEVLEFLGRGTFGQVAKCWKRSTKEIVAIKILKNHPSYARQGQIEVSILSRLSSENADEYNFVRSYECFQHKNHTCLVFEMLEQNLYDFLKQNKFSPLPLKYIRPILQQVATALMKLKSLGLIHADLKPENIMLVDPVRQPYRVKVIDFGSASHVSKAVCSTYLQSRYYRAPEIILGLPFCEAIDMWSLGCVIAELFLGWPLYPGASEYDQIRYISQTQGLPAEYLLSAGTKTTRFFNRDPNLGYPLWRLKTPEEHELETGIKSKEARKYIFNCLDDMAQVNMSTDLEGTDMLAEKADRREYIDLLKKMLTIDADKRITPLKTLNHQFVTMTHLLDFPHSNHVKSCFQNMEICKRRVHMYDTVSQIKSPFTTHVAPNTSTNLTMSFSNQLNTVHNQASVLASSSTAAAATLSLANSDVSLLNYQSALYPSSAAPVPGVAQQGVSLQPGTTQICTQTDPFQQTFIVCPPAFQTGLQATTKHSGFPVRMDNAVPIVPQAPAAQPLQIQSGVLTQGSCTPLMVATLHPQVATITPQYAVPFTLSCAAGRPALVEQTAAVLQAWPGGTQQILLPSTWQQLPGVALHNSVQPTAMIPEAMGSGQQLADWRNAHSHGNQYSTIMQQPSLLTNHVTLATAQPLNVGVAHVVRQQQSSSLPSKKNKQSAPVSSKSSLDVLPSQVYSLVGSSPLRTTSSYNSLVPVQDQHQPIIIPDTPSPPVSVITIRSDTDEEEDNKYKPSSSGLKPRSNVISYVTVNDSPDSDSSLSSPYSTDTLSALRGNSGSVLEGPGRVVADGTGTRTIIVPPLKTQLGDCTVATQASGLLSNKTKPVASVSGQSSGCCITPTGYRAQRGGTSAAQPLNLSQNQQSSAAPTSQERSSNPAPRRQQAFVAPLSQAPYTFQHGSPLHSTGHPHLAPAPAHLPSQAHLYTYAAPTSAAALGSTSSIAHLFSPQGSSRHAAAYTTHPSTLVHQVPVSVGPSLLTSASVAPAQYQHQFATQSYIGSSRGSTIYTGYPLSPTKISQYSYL

Structure (SMILES): Cc1nc2ccc(-c3cc(N)nc(N)c3)nc2n1C1CC1
- Activity [1]: 84%
- residual activity [2]: 69%
- residual activity [3]: 72%
- Activity [4]: 10.7%
